From US4950651A, “Nitroso-N-(β-chloro ethyl)-carbamoyl peptides” (priority 1981, dated 1990)
Where a name gives a salt, the structure may show the parent alone. Read-outs that look alike come from different tables or passages of the source. Where a SMILES comes first, the peptide text is derived from it. The star is where a group is joined. Carbamoyl(2-ClEt,NO) = O=NN(CCCl)C(=O)*

How the values were obtained:
L-1210 leukemia = assay: Effect on intraperitoneally implanted L-1210 leukemia in mice (Table I); type: in vivo; details: treatment 3 days
From the text: In table I the effect of Compound X [drawing 8] and VII on intraperitoneally implanted L-1210 leukemia is shown on mice.
Tumor inoculum = 10^6, ascites cells, i.p.
Host animal = CDF, female mice
Toxicity = on the 5th day < 4/6 mice are alive.
Evaluation = MST = average survival period
Critical limit = T/C ≥ 125, significant antitumor activity.

L1210 leukemia [1] = type: in vivo, mice
From the text: Effect of compound of formula X in combination
with pharmaceuticals in mice suffering from L1210

Lewis lung tumor = assay: Effect on solid tumors: Lewis lung metastatizing mice tumor (i.m.); type: in vivo
From the text: (§1) (B) Lewis lung and B16 melanoma - meta-
(§2) statizing mice tumor (i.m.)
(§3) i.p. administration from the 1st day after […]

B16 melanoma = assay: Effect on solid tumors: B16 melanoma metastatizing mice tumor (i.m.); type: in vivo
From the text: as §1, §2, §3

L1210 leukemia [2] = assay: Relation between effect and chemical structure in mice suffering from L1210 leukemia (Table III); type: in vivo
From the text: Examination of the relation between the
effect and the chemical structure with compounds
similar to compound of formula X in mice suffering

Compound: O=NN(CCCl)C(=O)NCCCl [BCNU, 1,3-bis-(β-chloro-ethyl)-1-nitroso-urea]
- Average loss of weight on the 5th day (L-1210 leukemia; dose IP 30 mg/kg): -0.8 g
- MST (average survival period) (L-1210 leukemia; dose IP 30 mg/kg): > 47.0 days
- MST efficiency %, T/C (L-1210 leukemia; dose IP 30 mg/kg): > 783%
- Number of live mice on the 5th day (L-1210 leukemia; dose IP 30 mg/kg): 6/6
- Number of live mice on the [47th] day (L-1210 leukemia; dose IP 30 mg/kg): 5
- Average loss of weight on the 5th day (L-1210 leukemia; dose IP 40 mg/kg): -1.4 g
- MST (average survival period) (L-1210 leukemia; dose IP 40 mg/kg): > 47.0 days
- MST efficiency %, T/C (L-1210 leukemia; dose IP 40 mg/kg): > 783%
- Number of live mice on the 5th day (L-1210 leukemia; dose IP 40 mg/kg): 6/6
- Number of live mice on the [47th] day (L-1210 leukemia; dose IP 40 mg/kg): 5
- ILS % (L1210 leukemia [1]; 5 mg/kg, day 1): 25%
- ILS % (L1210 leukemia [1]; 20 mg/kg, day 1): 110%
- ILS % (L1210 leukemia [1]; 1 × 10 mg/kg, day 2): 77%
- ILS % (L1210 leukemia [1]; 1 × 20 mg/kg, day 3): 70%
- ILS % (Lewis lung tumor; 20 mg/kg i.p.): 36%
- Median surviving day (Lewis lung tumor; 20 mg/kg i.p.): 28.5 days
- ILS % (Lewis lung tumor; 5 × 4 mg/kg i.p.): 19%
- Median surviving day (Lewis lung tumor; 5 × 4 mg/kg i.p.): 25.0 days
- ILS % (B16 melanoma; 20 mg/kg i.p.): 61%
- Median surviving day (B16 melanoma; 20 mg/kg i.p.): 42.0 days
- ILS % (B16 melanoma; 5 × 4 mg/kg i.p.): 31%
- Median surviving day (B16 melanoma; 5 × 4 mg/kg i.p.): 34.0 days

Compound: O=NN(CCCl)C(=O)N[C@H]1C(O)O[C@H](CO)[C@@H](O)[C@@H]1O (stereo partly drawn) [Chlorosoticin, 2-[3-(2-chloro-ethyl)-3-nitroso-ureido]-2-deoxy-O-glycopyranose]
- Average loss of weight on the 5th day (L-1210 leukemia; dose IP 8 mg/kg): +1.2 g
- MST (average survival period) (L-1210 leukemia; dose IP 8 mg/kg): 9.0 days
- MST efficiency %, T/C (L-1210 leukemia; dose IP 8 mg/kg): 150%
- Number of live mice on the 5th day (L-1210 leukemia; dose IP 8 mg/kg): 6/6
- Average loss of weight on the 5th day (L-1210 leukemia; dose IP 16 mg/kg): -0.8 g
- MST (average survival period) (L-1210 leukemia; dose IP 16 mg/kg): 20.5 days
- MST efficiency %, T/C (L-1210 leukemia; dose IP 16 mg/kg): 342%
- Number of live mice on the 5th day (L-1210 leukemia; dose IP 16 mg/kg): 6/6
- Average loss of weight on the 5th day (L-1210 leukemia; dose IP 32 mg/kg): -1.2 g
- MST (average survival period) (L-1210 leukemia; dose IP 32 mg/kg): > 47.0 days
- MST efficiency %, T/C (L-1210 leukemia; dose IP 32 mg/kg): > 783%
- Number of live mice on the 5th day (L-1210 leukemia; dose IP 32 mg/kg): 5/6
- Number of live mice on the [47th] day (L-1210 leukemia; dose IP 32 mg/kg): 3
- Average loss of weight on the 5th day (L-1210 leukemia; dose IP 48 mg/kg): -1.3 g
- MST (average survival period) (L-1210 leukemia; dose IP 48 mg/kg): 8.5 days
- MST efficiency %, T/C (L-1210 leukemia; dose IP 48 mg/kg): 142%
- Number of live mice on the 5th day (L-1210 leukemia; dose IP 48 mg/kg): 6/6

Compound: CC(C)[C@H](NC(=O)[C@@H]1CCCN1C(=O)[C@H](CCCCN)NC(=O)CNC(=O)N(CCCl)N=O)C(N)=O [XII, α-N-nitroso-N-(β-chloro-ethyl)-carbamoyl-glycyl-lysyl-prolyl-valine-amide-hydrochloride] ({Carbamoyl(2-ClEt,NO)}-GKPV-NH2)
- ILS % (L1210 leukemia [2]; 15 mg/kg): 20%
- ILS % (L1210 leukemia [2]; 45 mg/kg): 10%
- ILS % (L1210 leukemia [2]; 100 mg/kg): 35%
- ILS % (L1210 leukemia [2]; 150 mg/kg): 230%

Compound: O=P1(N(CCCl)CCCl)NCCCO1 (stereo not drawn) [cyclophosphamide]
- ILS % (L1210 leukemia [1]; 1 × 50 mg/kg, day 2): 44%

Compound: O[C@H]([C@H](O)[C@@H](O)CBr)[C@H](O)CBr [dibromodulcitol]
- ILS % (L1210 leukemia [1]; 1 × 50 mg/kg, day 2): 0%
